In US4988691A (priority 1989, dated 1991):
Counter-ions that a name gives are not always drawn. Like-named read-outs stand apart in the source and are kept apart here.

Key:
[1] = biological target: T1, contracturing effect of histamine (Cavia porcellus, UniProt P31389); experiment: antihistaminic activity in vitro (contracturing effect of histamine on isolated guinea pig small intestine); parameters: species or system Guinea pigs; settings: vs histamine; guinea pig small intestine; 37° C.; test compounds 10^-5 M; read-out: Antihistaminic activity (pA2) (converted)
T1 construct: Segments measuring 5-6 cm were drawn form the end portion of the small intestine; from tissue; host or cells: guinea pig terminal small intestine (ileum)
T1 sequence (P31389 whole entry): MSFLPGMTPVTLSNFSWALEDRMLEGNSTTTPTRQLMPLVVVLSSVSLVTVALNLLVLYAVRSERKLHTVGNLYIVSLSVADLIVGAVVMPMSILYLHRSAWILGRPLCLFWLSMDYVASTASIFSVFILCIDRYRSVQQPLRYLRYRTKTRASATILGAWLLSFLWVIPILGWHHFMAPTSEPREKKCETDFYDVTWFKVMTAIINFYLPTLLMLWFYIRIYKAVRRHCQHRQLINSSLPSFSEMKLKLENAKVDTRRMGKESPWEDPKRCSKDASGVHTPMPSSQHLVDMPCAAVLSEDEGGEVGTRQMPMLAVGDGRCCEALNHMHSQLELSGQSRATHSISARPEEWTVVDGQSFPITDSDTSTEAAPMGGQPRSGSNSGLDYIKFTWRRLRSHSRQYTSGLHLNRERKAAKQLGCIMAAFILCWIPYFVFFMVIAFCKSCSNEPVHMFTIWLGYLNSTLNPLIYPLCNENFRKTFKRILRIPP

[2] = biological target: T2, contracturing effect of acetylcholine (Cavia porcellus, UniProt H0W1Z3); experiment: anticholinergic activity in vitro (contracturing effect of acetylcholine on isolated guinea pig small intestine); parameters: species or system Guinea pigs
T2 construct: Segments measuring 5-6 cm were drawn form the end portion of the small intestine; from tissue; host or cells: guinea pig terminal small intestine (ileum)
T2 sequence (H0W1Z3 1-590): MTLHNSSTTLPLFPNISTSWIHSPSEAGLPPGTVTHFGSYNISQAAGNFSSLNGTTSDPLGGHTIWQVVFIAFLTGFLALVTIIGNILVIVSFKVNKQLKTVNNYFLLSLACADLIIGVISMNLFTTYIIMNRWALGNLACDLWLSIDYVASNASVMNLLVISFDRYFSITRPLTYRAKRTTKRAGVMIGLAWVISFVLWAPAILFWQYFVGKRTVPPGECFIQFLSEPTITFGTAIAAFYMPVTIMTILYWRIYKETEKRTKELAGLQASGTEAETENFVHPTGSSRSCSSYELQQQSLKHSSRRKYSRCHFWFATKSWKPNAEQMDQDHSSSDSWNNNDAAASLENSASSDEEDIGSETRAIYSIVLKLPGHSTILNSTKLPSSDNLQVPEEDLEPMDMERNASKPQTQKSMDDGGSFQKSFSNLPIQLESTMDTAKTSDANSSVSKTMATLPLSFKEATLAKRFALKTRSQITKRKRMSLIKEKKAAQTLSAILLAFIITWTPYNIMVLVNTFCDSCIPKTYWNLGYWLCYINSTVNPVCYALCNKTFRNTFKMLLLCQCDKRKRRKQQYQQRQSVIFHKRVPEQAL

Ca^++ receptors = experiment: displacement of 3H-nitrendipine from Ca++ receptors, rat brain membranes; type: binding; settings: 3H-nitrendipine 1nM
[3] = test system: receptors for benzodiazepins; experiment: displacement of 3H-flunitrazepam from benzodiazepine receptors, rat cerebral cortex membranes; type: binding; settings: 3H-flunitrazepam 1nM
5-HT3 receptors = biological target: T3, 5-HT3 receptors (Oryctolagus cuniculus, UniProt A0A5F9C9J3); experiment: anti-5-HT3 activity in vitro on the isolated vagus nerve of rabbit
T3 construct: from tissue; host or cells: isolated rabbit vagus nerve
T3 sequence (A0A5F9C9J3 1-494): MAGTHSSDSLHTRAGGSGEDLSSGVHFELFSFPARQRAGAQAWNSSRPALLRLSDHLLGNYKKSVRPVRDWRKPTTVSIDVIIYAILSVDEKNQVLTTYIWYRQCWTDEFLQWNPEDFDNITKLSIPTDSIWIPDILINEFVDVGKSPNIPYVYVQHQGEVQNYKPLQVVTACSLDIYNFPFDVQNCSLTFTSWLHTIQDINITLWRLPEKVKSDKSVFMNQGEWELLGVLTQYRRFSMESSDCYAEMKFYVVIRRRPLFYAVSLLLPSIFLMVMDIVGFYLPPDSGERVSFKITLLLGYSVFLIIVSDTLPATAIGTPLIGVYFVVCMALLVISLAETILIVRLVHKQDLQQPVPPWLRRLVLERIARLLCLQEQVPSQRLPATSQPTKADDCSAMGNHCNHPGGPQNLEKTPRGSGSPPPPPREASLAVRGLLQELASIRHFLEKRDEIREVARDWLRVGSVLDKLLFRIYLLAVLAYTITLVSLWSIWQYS
Procedure: (b) Evaluation of the anti-5-HT3 activity in vitro on the vagus nerve of rabbit. Male albino New Zeland rabbits weighing about 3 kg were sacrified by an air injection in the edge auriculaers vein. The two vagus nerves, drawn as soon as possible, were placed in a bath of Locke solution having the following composition: 154 mM NaCl; 5.5 mM KCl; 2.2 mM CaCl2; 5 mM glucose; 8 mM TRIS, the pH being adjusted at 7.6 by addition of HCl. Nerves were stripped of their epineurium and transferred into a device described by Kosterlitz H. W. et al., [J. Physiol., 183, IP-3P, (1966)] consisting of four compartments separated by means of 3 elastic membranes having a little hole through which the nerve passes. The glucose concentration perfusing a portion of the nerve was 315 mM. The overmaximal electric stimulation by a single shock at 10 seconds intervals elicited a potential visualized on a storage oscilloscope. In the potential the complexes due to the excitation of fibers A, B and C were distinguished. A serotonin solution applied to the nerve causes the dose-dependent fall of the potential for fibers C only. The non variation of the A-B complex when applying serotonin and the test compounds of formula I indicates on one hand the specific action of the substances for receptors relating to fibers C only (5-HT3 receptors) and on the other hand the absence of local-anaesthetic activity. Tests were performed at room temperature (24°-25° C.). The optimum maximum reduction of the potential of fibers C by serotonin resulted to be 44%. This reduction was adopted as maximum effect (100%). For each nerve a dose-response curve was constructed with cumulative doses of serotonin. After having washed serotonin and recovered the initial potential, the nerve was balanced with a fixed concentration of the compound of formula I for 60 minutes and successively the dose-response curve to serotonin was repeated, the compound of formula I being always present in the same concentration. After having applied a serotonin concentration sufficient to produce the highest effect, the preparation was washed and thereafter it was balanced again for 60 minutes with a solution of the same compound of formula I having a higher concentration. The procedure was then repeated. For each dose of the compound of formula I the test was repeated more than 5 times. The negative […] logarithm of the molar concentration of the compound of formula I which gives a 50% reduction of the effect of the agonist substance (pA2) was calculated. In table 7, the pA2 values of some compounds of formula I are reported.

rat sciatic nerve = experiment: local anaesthetic activity on sciatic nerve preparation in vitro; settings: read-out: ED50 (C.L. 95%)
5-HT2 receptors = 5-HT2 receptors (Rattus norvegicus, UniProt P14842); experiment: affinity for 5-HT2 receptors (3H-spiroperidol binding), rat cortex membranes; settings: 3H-spiroperidol […]; rat frontal cortex membranes
Chain of 5-HT2 receptors (P14842 whole entry): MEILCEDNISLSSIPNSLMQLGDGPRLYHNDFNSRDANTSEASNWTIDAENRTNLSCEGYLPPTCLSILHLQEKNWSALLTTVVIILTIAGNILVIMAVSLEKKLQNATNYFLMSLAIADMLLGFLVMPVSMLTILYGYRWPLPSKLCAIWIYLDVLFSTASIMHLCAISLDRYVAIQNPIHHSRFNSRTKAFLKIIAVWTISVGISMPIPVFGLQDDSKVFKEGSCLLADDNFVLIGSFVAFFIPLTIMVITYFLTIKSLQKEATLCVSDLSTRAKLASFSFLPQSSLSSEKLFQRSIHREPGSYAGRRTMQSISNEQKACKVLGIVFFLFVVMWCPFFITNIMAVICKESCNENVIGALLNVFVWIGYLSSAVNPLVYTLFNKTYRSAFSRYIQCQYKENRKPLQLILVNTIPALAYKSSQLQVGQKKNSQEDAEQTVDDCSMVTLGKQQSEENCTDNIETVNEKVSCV

5-HT1 receptors = experiment: affinity for 5-HT1 receptors (3H serotonin binding), rat cortex membranes; settings: 3H-serotonin 5 nM; rat frontal cortex membranes
guinea pig back = experiment: local anaesthetic activity in the test of the guinea pig back in vivo (intracutaneous infiltration); settings: guinea pig back, cutaneous anaesthesia, 0.25 ml
Procedure: (b) Evaluation of the local anaesthetic activity in the test of the guinea pig back in vivo in comparison with lidocaine.
The local anaesthetic activity was evaluated by the method of intracutaneous infiltration in the guinea pig back as described by Bulbring E. and Wajda I. [(J. Pharmacol. Exp. Ther. 85, 78, (1945)].
Female guinea pigs weighin 400-500 g were treated intracutaneously in 4 points of their back.
At 5 minutes intervals, it was determined the reactivity of the animal to pain in each area by considering the number of responses to 6 pain stimulations.
Compounds of formula I, compound R and lidocaine, dissolved at different concentration in physiological solution adjusting the pH at 7 by addition of NaHCO3 were injected under the skin at the constant volume of 0.25 ml.
The distribution of the treatments in the 4 areas of the back was carried out according to the scheme of the Latin square. Experiments were carried out in blind.
As an example, the ED50 values for compound No. 8, compound R and lidocaine determined at 5, 15 and 30 minutes after the administration are reported in table 4.

[4] = vs acetylcholine, guinea pig small intestine, 37° C., test compounds 10^-5 M, read-out: Antichlonergic activity (pA2) (converted)

Question: CN1[C@@H]2CC[C@H]1C[C@@H](OC(=O)c1cc(OCc3ccccc3)no1)C2 [Compound 3, 3-benzyloxyisoxazole-5-carboxylic acid 3-(endo-8-methyl-8-azabicyclo[3,2,1]octyl) ester hydrochloride] was tested. Which Kb [1] did it give?
Answer: The Kb was 2.51 µM.

Question: And the Kb [2]?
Answer: The Kb was 2 µM.

Question: Cc1cc(C(=O)O[C@H]2C[C@H]3CC[C@@H](C2)N3C)on1 [Compound 5, 3-methylisoxazole-5-carboxylic acid 3-(endo-8-methyl-8-azabicyclo[3,2,1]octyl) ester hydrochloride] was tested. Which Kb [1] did it give?
Answer: The Kb was 12.6 µM.

Question: What about the Kb [2] of the same compound?
Answer: Its Kb is 31.6 µM.

Question: What about the “Displacement activity at receptors of Ca++” value (Ca^++ receptors) of the same compound?
Answer: The value was “inactive”.

Question: What about the “Displacement activity at benzodiazepine receptors” value [3] of the same compound?
Answer: Its value is “inactive”.

Question: What about the Kb (5-HT3 receptors) of the same compound?
Answer: Its Kb is 1.58 nM.

Question: What does the source list for COc1cc(C(=O)O[C@H]2C[C@H]3CC[C@@H](C2)N3C)on1 [Compound 6, 3-methoxyisoxazole-5-carboxylic acid 3-(endo-8-methyl-8-azabicyclo[3,2,1]octyl) ester hydrochloride]?
Answer: IC50 (rat sciatic nerve; rat, sciatic nerve, 8 min): > 15 mM; Kb [1]: 6.31 µM; Kb [2]: 12.6 µM; Kb (5-HT3 receptors): 1.26 nM

Question: How did the IC50 (rat sciatic nerve; rat sciatic nerve in vitro, 8 minutes contact) turn out when Cc1cc(C(=O)OC2CCN(C)CC2)no1 [Compound 9, 5-methylisoxazole-3-carboxylic acid 4-(1-methylpiperidinyl) ester hydrochloride] was run?
Answer: The IC50 was > 15 mM.

Question: And the Kb [1]?
Answer: Its Kb is 10 µM.

Question: What about the Kb [2, 4] of the same compound?
Answer: Its Kb is 25.1 µM.

Question: What does the source list for Cc1cc(C(=O)OC2CCCN(C)C2)no1 (stereo not shown) [Compound 10, 5-methylisoxazole-3-carboxylic acid 3-(1-methylpiperidinyl) ester hydrochloride]?
Answer: Kb [1]: 200 µM; Kb [2, 4]: 50.1 µM; Affinity (IC50) to 5-HT2 receptors (5-HT2 receptors): inactive

Question: How did the Kb [1] turn out when CCN1CCCC(NC(=O)c2cc(C)on2)C1 (stereo not shown) [Compound 14, N-(1-ethyl-3-piperidinyl)-5-methylisoxazole-3-carboxamide] was run?
Answer: Its Kb is 316 µM.

Question: With Cc1cc(C(=O)N[C@@H]2C[C@H]3CC[C@@H](C2)N3C)no1 [Compound 15, N-[3-(exo-8-methyl-8-azabicyclo[3,2,1]octyl)]-5-methylisoxazole-3-carboxamide] as the compound, how does the Kb [1] read?
Answer: The Kb was 50.1 µM.

Question: For Cc1cc(C(=O)N[C@H]2C[C@H]3CC[C@@H](C2)N3C)no1 [Compound 16, N-[3-(endo-8-methyl-8-azabicyclo[3,2,1]octyl)]-5-methylisoxazole-3-carboxamide], which Kb [1] is on record?
Answer: The Kb was 7.94 µM.

Question: And the Kb [2]?
Answer: The Kb was 126 µM.

Question: Which Kb [1] does the source give for Cc1cc(C(=O)NC2CN3CCC2CC3)no1 (stereo not shown) [Compound 17, N-[3-(1-azabicyclo[2,2,2]octyl)]-5-methylisoxazole-3-carboxamide] here?
Answer: Its Kb is 50.1 µM.

Question: With Cc1cc(C(=O)O[C@H]2C[C@H]3CC[C@@H](C2)[N+]3(C)C)no1 [Compound 18, endo-8,8-dimethyl-3-(5-methylisoxazole-3-carbonyloxy)-8-azoniabicyclo[3,2,1]octane bromide] as the compound, how does the “Affinity (IC50) to 5-HT1 receptors” value (5-HT1 receptors) read?
Answer: The value was “inactive”.

Question: And the IC50 (rat sciatic nerve; rat, sciatic nerve, 8 min)?
Answer: The IC50 was > 15 mM.

Question: And the Kb [1]?
Answer: Its Kb is 15.8 µM.

Question: And the Kb [2]?
Answer: Its Kb is 6.31 µM.

Question: And the “Affinity (IC50) to 5-HT2 receptors” value (5-HT2 receptors)?
Answer: The value was “inactive”.

Question: CN1C(=O)CN=C(c2ccccc2)c2cc(Cl)ccc21 [diazepam, reference compound] was tested. Which “Displacement activity at benzodiazepine receptors” value [3] did it give?
Answer: The value was 4.

Question: For O=C(c1ccc(F)cc1)C1CCN(CCn2c(=O)[nH]c3ccccc3c2=O)CC1 [ketanserine, reference compound], which IC50 (5-HT1 receptors) is on record?
Answer: The IC50 was 10 µM.

Question: Which results are given for CCN(CC)CC(=O)Nc1c(C)cccc1C [lidocaine]?
Answer: IC50 (rat sciatic nerve; rat, sciatic nerve, 8 min): 0.6 mM; ED50 (C.L. 95%), 5 min. (guinea pig back; 5 min. after administration): 5.8 (4.9-6.8) mM; ED50 (C.L. 95%), 15 min. (guinea pig back; 15 min. after administration): 7.6 (6.8-8.4) mM; ED50 (C.L. 95%), 30 min. (guinea pig back; 30 min. after administration): 15.2 (13.8-16.6) mM

Question: Which “optimum maximum reduction of the potential of fibers C” value (5-HT3 receptors; serotonin applied to rabbit vagus nerve, 24°-25° C.) does the source give for NCCc1c[nH]c2ccc(O)cc12 [serotonin, reference compound] here?
Answer: Its value is 44%.
